1 compound from patent EP0748800A2, “Pyrimidinedione, pyrimidinetrione, triazinedione, tetrahydroquinazolinedione derivatives as alpha-1-adrenergic receptor antagonists” (priority 1995, dated 1996) can be followed below.

The subject of series [1] is anesthetized dog. Kind of series: Dog in vivo intraurethral pressure assay (hypogastric nerve stimulation). As to conditions: i.v., increasing doses, relative to DAP. The protocol: (§1) The following describes an in vivo assay for measuring the relative effect of test compounds on hypogastric nerve stimulation-induced increases in intraurethral pressure and phenylephrine-induced increases in diastolic blood pressure in anesthetized dog.
(§2) Mongrel dogs (10 to 20 kg) were fasted for 12 to 18 hours and anesthetized with pentobarbital sodium (35 mg/kg, i.v.). An endotracheal tube was inserted and thereafter the lungs were mechanically ventilated with room air. The right femoral vein was isolated and cannulated with two polyethylene cannulae, one for the administration of a continuous infusion of pentobarbital sodium (5 to 10 mg/kg/hr) and the other for bolus administration of test substances. The right femoral artery was isolated and cannulated to the abdominal aorta with a fluid filled polyethylene cannula connected to an external pressure transducer for monitoring diastolic aortic pressure (DAP). The bladder was exposed via a ventral midline abdominal incision and emptied of urine through a 22 gauge needle. The bladder was cannulated through a stab incision with a water filled balloon catheter connected to an external pressure transducer for monitoring prostatic intraurethral pressure (IUP). The right hypogastric nerve (HGN) was carefully isolated and attached to a Dastre's electrode for nerve stimulation. […]

Series [2] concerns α1-adrenoceptor. As to conditions: relative to human prostatic/bladder neck smooth muscle; agonist norepinephrine.
Protocol: (§3) The following describes in vitro assays for measuring the relative effect of test compounds on α1-adrenoceptor mediated contractions of human, isolated arterial and urinary bladder smooth muscle.
Human arterial blood vessels were obtained post-mortem and immediately immersed in cold physiological saline solution. Within 24 hours of removal the isolated arterial tissue was placed in Krebs' solution (comprising in mM concentrations: NaCl, 118.5; NaHCO3, 25; dextrose, 5; KCl, 4.8; CaCl2, 2.5; MgSO4, 1.2; KH2PO4, 1.2; cocaine, 0.03; corticosterone, 0.03; propranolol, 0.001; ascorbic acid, 0.1; and indomethacin, 0.01). The arteries were dissected free from extraneous tissue and then cut into cross sectional rings approximately 3 mm in length. […] A resting tension of 1 to 1.5 g was applied to each ring and thereafter periodically readjusted to maintain a 1 g resting tension throughout the duration of the assay. […]
(§4) The tissue was then exposed to solution free of norepinephrine, replacing the solution twice every 5 minutes for 30 minutes. After baseline tension was established and readjusted to 1 g, the tissue was exposed to bath solution containing the test compound, replacing the solution every 15 minutes for 60 minutes. […]
(§5) The concentration ratio (CR) of norepinephrine necessary to produce equiactive responses in the absence and presence of the test compound was determined. […]
Series [3] deals with anesthetized dog. The following applies: in vivo, iv. The protocol:
as §1, §2

Series [4] deals with α1-adrenoceptor. As to conditions: relative to human isolated arterial smooth muscle; agonist norepinephrine.
Description: as §3
Human prostatic and bladder neck smooth muscle tissue was obtained following radical cystoprostatectomies or radical prostatectomies and immediately immersed in Krebs' solution. The prostatic and bladder tissue was dissected free from extraneous tissue and then strips of tissue 0.8 to 1.2 cm in length and 3 to 5 mm in width were cut and suspended vertically in 10 ml tissue baths and bathed in Kreb's solution maintained at 37°C and constantly aerated with a 95% O2 and 5% CO2 gas mixture. A resting tension of 0.75 to 1 g was applied to each muscle strip and thereafter periodically readjusted to maintain a 1 g resting tension throughout the duration of the assay. […]
as §4, §5
For series [5], the system named is α1-adrenoceptor. The following applies: relative to rabbit isolated urinary bladder smooth muscle; agonist norepinephrine.
Description: The following describes in vitro assays for measuring the relative effect of test compounds on α1-adrenoceptor mediated contraction of rat, isolated aortic smooth muscle and rabbit, isolated urinary bladder smooth muscle.
Thoracic aorta were isolated from rats and immediately immersed in Krebs' solution (comprising in mM concentrations: NaCl, 118.5; NaHCO3, 25; dextrose, 5; KCl, 4.8; CaCl2, 2.5; MgSO4, 1.2; KH2PO4, 1.2; cocaine, 0.03; corticosterone, 0.03; propranolol, 0.001; ascorbic acid, 0.1; and indomethacin, 0.01). The aortas were dissected free from extraneous tissue and then a cross sectional ring approximately 3 mm in length was cut from the most proximal segment. […] A resting tension of 1 g was applied to each aortic ring and thereafter periodically readjusted to maintain a 1 g resting tension throughout the duration of the assay. […]
The tissue was then exposed to solution free of agonist, replacing the solution twice every 5 minutes for 30 minutes. After baseline tension was established and readjusted to 1 g, the tissue was exposed to bath solution containing the test compound, replacing the solution every 15 minutes for 60 minutes. […]
The concentration ratio (CR) of agonist necessary to produce equiactive responses in the absence and presence of the test compound was determined. […]

For the compound `COc1cc2nc(N3CCN(C(=O)c4ccco4)CC3)nc(N)c2cc1OC` [prazosin], the “inhibition of HGN stimulation-induced increases in IUP” value with anesthetized dog [1] is “inhibited increases in IUP and DAP in a similar fashion”. Besides, the “inhibition of α1-adrenoceptor mediated contractions of human, isolated arterial smooth muscle” value in the series on α1-adrenoceptor [2] is reported as “non-selectively inhibited”. For the same compound, the “inhibition of phenylephrine-induced increases in DAP” value in the series with anesthetized dog [3] is “inhibited increases in IUP and DAP in a similar fashion”. Moreover, the “inhibition of α1-adrenoceptor mediated contractions of human, isolated prostatic and bladder neck smooth muscle” value in the series with α1-adrenoceptor [4] is “non-selectively inhibited”. For the same compound, the “inhibition of α1-adrenoceptor mediated contractions of rat, isolated aortic smooth muscle” value with α1-adrenoceptor [5] is “selectively inhibited”.
